Results reported in ChEMBL document CHEMBL5331056 (Eur J Med Chem, 2022).
pIC50: −log10 of the molar value.

What was measured:
[1] = Antioxidant activity assessed as DPPH radical scavenging activity measured after 1 hrs; assay type: functional
PC-3 = experiment: Anticancer activity against human PC-3 cells assessed as cell growth inhibition measured after 72 hrs by MTT assay; assay type: functional, cell-based; settings: PC-3, 72 h
MCF7 = experiment: Anticancer activity against human MCF7 cells assessed as cell growth inhibition measured after 72 hrs by MTT assay; assay type: functional, cell-based; settings: MCF7, 72 h
[2] = Toxicity in STZ-induced Wistar rat of type 1 diabetes assessed as coronary arterial flow rate at 3 mg/kg, ip administered twice daily measured after 4 weeks (reference value: 12.6 +/- 0.5 mL/min); assay type: organism-based; settings: in vivo, 672 h
Rattus norvegicus = experiment: Antidiabetic activity against overnight fasted STZ-induced Wistar rat of type 1 diabetes assessed as increase in insulin level at 1 mg/kg, po by ELISA (reference value: 7.7 +/- 1.0 microIU/mL); assay type: functional
[3] = tested on: Human immunodeficiency virus; experiment: Antiviral activity against HIV infected in MT4 cells assessed as viral replication; assay type: functional, organism-based; settings: Human immunodeficiency virus 1, MT4
[4] = Antioxidant activity assessed as DPPH radical scavenging activity measured after 30 mins; assay type: functional
[5] = Induction of insulin-sensitizing activity in insulin-resistant human HepG2 cells assessed as increase in glucose consumption at 30 ng/ml relative to control; assay type: functional, insulin-resistant human HepG2 cell
Mus musculus [6] = experiment: Antidiabetic activity in STZ-induced Swiss albino mouse assessed as blood glucose level at 5 microM/kg, ip administered twice daily measured after 21 days (reference value: 220 +/- 7.2mg/dl); assay type: functional; settings: time 21 day
[7] = Induction of insulin-sensitizing activity in insulin-resistant human HepG2 cells assessed as increase in glucose consumption at 60 ng/ml relative to control; assay type: functional, insulin-resistant human HepG2 cell
Mus musculus [8] = experiment: Antidiabetic activity in STZ-induced Swiss albino mouse assessed as insulin level at 5 microM/kg, ip administered twice daily measured after 21 days (reference value: 88.7%); assay type: functional; settings: time 21 day, at 5 µmol/kg
Mus musculus [9] = experiment: Antidiabetic activity in STZ-induced C57BL/6J mouse assessed as increase in insulin sensitivity at 30 mg/kg; assay type: functional
Mus musculus [10] = experiment: Antidiabetic activity in STZ-induced Swiss albino mouse assessed as inhibition of IFN-gamma level at 5 microM/kg, ip administered twice daily measured after 21 days relative to control; assay type: functional; design: scale not given: the % may be the effect or the level left; settings: time 21 day, at 5 µmol/kg
Mus musculus [11] = experiment: Antidiabetic activity in STZ-induced Swiss albino mouse assessed as inhibition of IL-1beta level at 5 microM/kg, ip administered twice daily measured after 21 days relative to control; assay type: functional; design: scale not given: the % may be the effect or the level left; settings: time 21 day, at 5 µmol/kg
Mus musculus [12] = experiment: Antidiabetic activity in STZ-induced Swiss albino mouse assessed as inhibition of NO level at 5 microM/kg, ip administered twice daily measured after 21 days relative to control; assay type: functional; design: scale not given: the % may be the effect or the level left; settings: time 21 day, at 5 µmol/kg
Mus musculus [13] = experiment: Antiinflammatory activity in STZ-induced C57BL/6J mouse of non insulin dependent diabetes mellitus assessed as PPAR-alpha level at 30 mg/kg; assay type: functional

Structure (SMILES): C[C@@]1(C(=O)O)O[C@H]1COC(=O)/C=C/c1ccc(O)c(O)c1
- FRS50 [1]: 43.8 µM

Structure (SMILES): CCCCCCCCCCOC/C=C/c1cccc(O)c1
- pIC50 (PC-3): < 5.00
- pIC50 (MCF7): < 5.00

Structure (SMILES): CCCCCCCCCCOC/C=C/c1ccc(O)cc1
- pIC50 (PC-3): < 5.00
- pIC50 (MCF7): < 5.00

Structure (SMILES): O=C(/C=C/c1ccc(O)c(O)c1)NCCc1ccccc1 [CAFFEIC ACID PHENETHYL AMIDE]
- Activity [2]: 11.2 mL/min
- Activity (Rattus norvegicus): 14.9 uIU/ml

Structure (SMILES): Oc1ccc(/C=C/COCCCCCCc2ccccc2)cc1O
- pIC50 (PC-3): 5.85
- pIC50 (MCF7): 5.62

Structure (SMILES): O=C1C=C(Cn2cc(COc3ccc(CO)cc3)nn2)C(=O)C=C1O
- pIC50 [3]: 5.38

Structure (SMILES): Oc1ccc(/C=C/COCCCCCCc2ccccc2)cc1
- pIC50 (PC-3): < 5.00
- pIC50 (MCF7): < 5.00

Structure (SMILES): Oc1ccc(/C=C/COCCc2ccccc2)cc1
- pIC50 (PC-3): < 5.00
- pIC50 (MCF7): < 5.00

Structure (SMILES): O=C(O)/C=C/c1ccc(O)c(O)c1 [CAFFEIC ACID]
- pIC50 [4]: 4.49

Structure (SMILES): O=c1c(O)c(-c2ccc(O)c(O)c2)oc2cc(O)cc(O)c12
- FRS50 [1]: 13.4 µM

Structure (SMILES): O=C(/C=C/c1ccc(O)c(O)c1)O[C@@H]1C[C@](O)(C(=O)O)C[C@@H](OC(=O)/C=C/c2ccc(O)c(O)c2)[C@H]1O
- FRS50 [1]: 71.8 µM

Structure (SMILES): Oc1ccc(/C=C/COCCc2ccccc2)cc1O
- pIC50 (PC-3): 5.92
- pIC50 (MCF7): 5.10

Structure (SMILES): CCCCCCCCCCOC/C=C/c1cc(O)c(O)c(O)c1
- pIC50 (PC-3): 6.22
- pIC50 (MCF7): 6.10

Structure (SMILES): O=C(/C=C/c1ccc(O)c(O)c1)OCCc1ccccc1 [CAFFEIC ACID PHENETHYL ESTER]
- Activity [5]: 17.1%
- Activity (Mus musculus [6]): 137 mg/dL
- Activity [7]: 24.3%
- Activity (Mus musculus [8]): 93.8%
- Activity (Mus musculus [9]): 20.8%
- Activity (Mus musculus [10]): 26.3%
- Activity (Mus musculus [11]): 43.2%
- Activity (Mus musculus [12]): 58.3%
- Activity (Mus musculus [13]): 38.6%

Structure (SMILES): O=C(/C=C/c1ccc(O)c(O)c1)O[C@H]1[C@H](O)C[C@](O)(C(=O)O)C[C@H]1OC(=O)/C=C/c1ccc(O)c(O)c1
- FRS50 [1]: 23.8 µM

Structure (SMILES): COC(=O)/C=C/c1cc(O)c(O)cc1O
- pIC50 [4]: 4.27

Structure (SMILES): COC(=O)/C=C/c1ccc(O)c(O)c1O
- pIC50 [4]: 4.73

Structure (SMILES): CCCCCCCCCCOC/C=C/c1ccc(O)c(O)c1
- pIC50 (PC-3): 6.22
- pIC50 (MCF7): 5.77

Structure (SMILES): O=C(/C=C/c1ccc(O)c(O)c1)O[C@@H]1[C@H](O)C[C@@](O)(C(=O)O)C[C@H]1OC(=O)/C=C/c1ccc(O)c(O)c1
- FRS50 [1]: 19.8 µM

Structure (SMILES): CC(=O)/C=C/c1ccc(O)c(O)c1O
- pIC50 [4]: 4.77
